Test results as given in PubChem BioAssay AID2060900 (Molecular Pharmacology Branch, DTP, NCI, 2025).

System: 521955-158-R2-J5-PDC complex spheroids, viability
Assay: Anticancer human tumor 521955-158-R2-J5-PDC patient-derived pancreatic carcinoma cell line growth inhibition [RAS]
Conditions: for IC50: curve of first compound; for viability, T/C: stronger effect = lower value
Source text: RAS pathway inhibitors in Combinations in Complex Spheroids
A high-throughput screen of multi-cell type tumor spheroids was designed to identify active combinations of RAS pathway inhibitors and targeted small molecules. Complex spheroids include a stromal component modeled by human endothelial cells (HUVEC) and fibroblasts modeled by human mesenchymal stem cells (MSCs). The concentration ranges selected for each drug and investigational agent were based upon clinically achievable concentrations if the clinical Cmax of the agent was known.
Compounds. The drugs and investigational agents: abemaciclib (NSC768073), cobimetinib (NSC768068), divarasib (GDC6063, NSC841802), docetaxel (NSC628503), GDC-1971 (RLY-1971, NSC841576), gemcitabine (NSC613327), inavolisib (NSC800729), ipatasertib (NSC767898), KB-0742 (NSC834161), MRTX-1133 (NSC836407), osimertinib (NSC779217), RMC-4630 (NSC839698), RMC-6236 (NSC851965), RMC-6291 (NSC852671), Ro-3306 (NSC812927), sapanisertib (NSC764658), SN-38 (NSC673596), staurosporine (NSC755774), SY5609 (NSC837396), and tovorafenib (DAY101, NSC766906), were obtained from the National Cancer Institute (NCI) Developmental Therapeutics Program Chemical Repository. The FDA-approved anticancer drug set is available from the NCI Developmental Therapeutics Program. […] The stock solutions were prepared in dimethyl sulfoxide (DMSO, Sigma-Aldrich, St. Louis, MO, cat. D2650) at 800-fold the tested concentration and stored at -70 degrees C prior to their use. All drugs and investigational agents were tested over a range starting from a high concentration at or near the clinical Cmax and decreasing in half-log increments. If the clinical Cmax for an agent had not been determined, the highest concentration tested was 10 microM.
Cell Culture. All cells were maintained in an incubator at 37 degrees C and 5% CO2 with 95% humidity. The PDC lines were cultured according to standard operating procedures established by the NCI PDMR. All PDCs were thawed and cultured in Matrigel-coated flasks prepared with a working solution of 1X Ham's F-12 nutrient mix, without supplementation (Invitrogen, Waltham, MA, cat. 11765054), 100 U/mL penicillin-streptomycin (Invitrogen, cat. 15140122), and 2.5% Matrigel (Corning Inc., Corning, NY, cat. 354248) for the first three passages. The 362531-283-R-J2-PDC and 782815-120-R-J1-PDC lines were cultured in 6C/Colon 1B media, which includes advanced DMEM/F-12 (Thermo Fisher Scientific, cat. 12634028), 10 mM HEPES (Thermo Fisher Scientific, cat. 15630080), 1X GlutaMAX supplement (Thermo Fisher Scientific, cat. 35050061), 0.1 mg/mL primocin (InvivoGen, San Diego, CA, cat. ant-pm-2), 10% defined fetal bovine serum, heat inactivated (HyClone Laboratories Inc., Logan, UT, cat. SH30070.03HI), 50% L-WRN conditioned media (ATCC, cat. CRL-3276), 1.25 mM N-Acetyl-L-cysteine (Sigma-Aldrich, cat. A9165), 10 mM nicotinamide (Sigma-Aldrich, cat. N0636), 1X B-27 supplement (Thermo Fisher Scientific, cat. 17504044), 1X N-2 supplement (Thermo Fisher Scientific, cat. 17502048), 50 ng/mL human EGF (Thermo Fisher Scientific, cat. PHG0311), and 10 microM Y-27632 dihydrochloride (Tocris Bioscience, cat. 1254). The K12877-001-R-J1-PDC line was cultured in 6I media, which includes all 6C/Colon 1B media plus 10 ng/mL human FGF-10 (PeproTech, cat. 100-26), 1 ng/mL human FGF-2 (PeproTech, cat. 100-18B), 1 µM prostaglandin E2 (Tocris Bioscience, cat. 2296), […] hydrocortisone (Sigma-Aldrich, cat. H4001), and […] bovine insulin (Sigma-Aldrich, cat. I6634). The K86415-001-R-J1-PDC line was cultured in 6D media, which includes all 6C/Colon 1B media components minus the L-WRN conditioned media. The 485176-168-R4-J1-PDC was cultured in PANC media, which includes all 6C/Colon 1B media plus 100 ng/mL human FGF-10 (PeproTech, cat. 100-26), 500 nM SB-431542 (Selleckchem, cat. S1067), and 10 nM gastrin (Tocris Bioscience, cat. 3006). […]

[1] = second compound 0.0316 µM, first compound 0.00316 µM
[2] = second compound 0.0316 µM, first compound 0.01 µM
[3] = second compound 0.0316 µM, first compound 0.0316 µM
[4] = second compound 0.0316 µM, first compound 0.1 µM
[5] = second compound 0.0316 µM, first compound 0.316 µM
[6] = second compound 0.0316 µM, first compound 1 µM
[7] = second compound 0.1 µM, first compound 0.00316 µM
[8] = second compound 0.1 µM, first compound 0.01 µM
[9] = second compound 0.1 µM, first compound 0.0316 µM
[10] = second compound 0.1 µM, first compound 0.1 µM
[11] = second compound 0.1 µM, first compound 0.316 µM
[12] = second compound 0.1 µM, first compound 1 µM
[13] = second compound 0.316 µM, first compound 0.00316 µM
[14] = second compound 0.316 µM, first compound 0.01 µM
[15] = second compound 0.316 µM, first compound 0.0316 µM
[16] = second compound 0.316 µM, first compound 0.1 µM
[17] = second compound 0.316 µM, first compound 0.316 µM
[18] = second compound 0.316 µM, first compound 1 µM
[19] = second compound 1 µM, first compound 0.00316 µM
[20] = second compound 1 µM, first compound 0.01 µM
[21] = second compound 1 µM, first compound 0.0316 µM
[22] = second compound 1 µM, first compound 0.1 µM
[23] = second compound 1 µM, first compound 0.316 µM
[24] = second compound 1 µM, first compound 1 µM
[25] = second compound 3.16 µM, first compound 0.00316 µM
[26] = second compound 3.16 µM, first compound 0.01 µM
[27] = second compound 3.16 µM, first compound 0.0316 µM
[28] = second compound 3.16 µM, first compound 0.1 µM
[29] = second compound 3.16 µM, first compound 0.316 µM
[30] = second compound 3.16 µM, first compound 1 µM
[31] = second compound 10 µM, first compound 0.00316 µM
[32] = second compound 10 µM, first compound 0.01 µM
[33] = second compound 10 µM, first compound 0.0316 µM
[34] = second compound 10 µM, first compound 0.1 µM
[35] = second compound 10 µM, first compound 0.316 µM
[36] = second compound 10 µM, first compound 1 µM
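Also: compound exposure lasted seven days before the viability read.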
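For viability, T/C in this document: spheroids also contain HUVEC endothelial cells and mesenchymal stem cells as stroma.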

For C=CC(=O)Nc1cc(Nc2nccc(-c3cn(C)c4ccccc34)n2)c(OC)cc1N(C)CCN(C)C + C#Cc1c(F)ccc2cc(O)cc(-c3ncc4c(N5CC6CCC(C5)N6)nc(OCC56CCCN5CC(F)C6)nc4c3F)c12, which IC50 (second compound 0.0316 µM) is on record?
Its IC50 is 39.2 nM.

And the IC50 (second compound 0.1 µM)?
Its IC50 is 217 nM.

And the IC50 (second compound 0.316 µM)?
Its IC50 is 47.1 nM.

What about the IC50 (second compound 1 µM) of the same compound?
The IC50 was under 3.16 nM.

What about the IC50 (second compound 3.16 µM) of the same compound?
The IC50 was under 3.16 nM.

What about the IC50 (second compound 10 µM) of the same compound?
Its IC50 is under 3.16 nM.

And the viability, T/C [1]?
The viability, T/C was 65.3%.

And the viability, T/C [2]?
Its viability, T/C is 56%.

And the viability, T/C [3]?
The viability, T/C was 52.8%.

What about the viability, T/C [4] of the same compound?
Its viability, T/C is 43.5%.

What about the viability, T/C [5] of the same compound?
The viability, T/C was 38.3%.

And the viability, T/C [6]?
Its viability, T/C is 29.6%.

What about the viability, T/C [7] of the same compound?
The viability, T/C was 46%.

What about the viability, T/C [8] of the same compound?
Its viability, T/C is 59.9%.

What about the viability, T/C [9] of the same compound?
The viability, T/C was 49.7%.

What about the viability, T/C [10] of the same compound?
The viability, T/C was 59.8%.

And the viability, T/C [11]?
Its viability, T/C is 46.7%.

And the viability, T/C [12]?
The viability, T/C was 22.9%.

And the viability, T/C [13]?
The viability, T/C was 51%.

What about the viability, T/C [14] of the same compound?
Its viability, T/C is 58.8%.

What about the viability, T/C [15] of the same compound?
The viability, T/C was 47.1%.

And the viability, T/C [16]?
The viability, T/C was 48.6%.

What about the viability, T/C [17] of the same compound?
The viability, T/C was 34.5%.

What about the viability, T/C [18] of the same compound?
The viability, T/C was 22.6%.

What about the viability, T/C [19] of the same compound?
The viability, T/C was 46.8%.

What about the viability, T/C [20] of the same compound?
Its viability, T/C is 48.3%.

What about the viability, T/C [21] of the same compound?
The viability, T/C was 51.1%.

What about the viability, T/C [22] of the same compound?
The viability, T/C was 43.4%.

What about the viability, T/C [23] of the same compound?
Its viability, T/C is 34.4%.

And the viability, T/C [24]?
Its viability, T/C is 17.8%.

And the viability, T/C [25]?
The viability, T/C was 43%.

And the viability, T/C [26]?
The viability, T/C was 53.4%.

What about the viability, T/C [27] of the same compound?
The viability, T/C was 42.5%.

And the viability, T/C [28]?
The viability, T/C was 49.9%.

And the viability, T/C [29]?
Its viability, T/C is 27.8%.

What about the viability, T/C [30] of the same compound?
Its viability, T/C is 15%.

And the viability, T/C [31]?
The viability, T/C was 32.5%.

And the viability, T/C [32]?
Its viability, T/C is 43.9%.

And the viability, T/C [33]?
Its viability, T/C is 32.2%.

What about the viability, T/C [34] of the same compound?
The viability, T/C was 34.2%.

What about the viability, T/C [35] of the same compound?
Its viability, T/C is 26.1%.

And the viability, T/C [36]?
The viability, T/C was 3.73%.

For O=C(c1ccc(F)c(F)c1Nc1ccc(I)cc1F)N1CC(O)([C@@H]2CCCCN2)C1 + C#Cc1c(F)ccc2cc(O)cc(-c3ncc4c(N5CC6CCC(C5)N6)nc(OCC56CCCN5CC(F)C6)nc4c3F)c12, which IC50 (second compound 0.0316 µM) is on record?
Its IC50 is 13.9 nM.

What about the IC50 (second compound 0.1 µM) of the same compound?
Its IC50 is 9.71 nM.

And the IC50 (second compound 0.316 µM)?
The IC50 was 5.09 nM.

What about the IC50 (second compound 1 µM) of the same compound?
The IC50 was under 3.16 nM.

And the IC50 (second compound 3.16 µM)?
Its IC50 is under 3.16 nM.

What about the IC50 (second compound 10 µM) of the same compound?
The IC50 was under 3.16 nM.

And the viability, T/C [1]?
Its viability, T/C is 57.3%.

And the viability, T/C [2]?
Its viability, T/C is 53%.

And the viability, T/C [3]?
The viability, T/C was 43.3%.

What about the viability, T/C [4] of the same compound?
Its viability, T/C is 35.2%.

And the viability, T/C [5]?
The viability, T/C was 23.4%.

What about the viability, T/C [6] of the same compound?
Its viability, T/C is 15.4%.

What about the viability, T/C [7] of the same compound?
Its viability, T/C is 54.5%.

And the viability, T/C [8]?
Its viability, T/C is 54.2%.

And the viability, T/C [9]?
The viability, T/C was 34.3%.

And the viability, T/C [10]?
The viability, T/C was 29.3%.

What about the viability, T/C [11] of the same compound?
The viability, T/C was 20.1%.

And the viability, T/C [12]?
Its viability, T/C is 15%.

What about the viability, T/C [13] of the same compound?
Its viability, T/C is 51.5%.

And the viability, T/C [14]?
The viability, T/C was 47.6%.

What about the viability, T/C [15] of the same compound?
Its viability, T/C is 38.4%.

And the viability, T/C [16]?
The viability, T/C was 36%.

And the viability, T/C [17]?
Its viability, T/C is 19.1%.

And the viability, T/C [18]?
The viability, T/C was 17%.

And the viability, T/C [19]?
Its viability, T/C is 44.6%.

And the viability, T/C [20]?
Its viability, T/C is 43%.

What about the viability, T/C [21] of the same compound?
The viability, T/C was 38.6%.

And the viability, T/C [22]?
The viability, T/C was 23.2%.

And the viability, T/C [23]?
Its viability, T/C is 14.4%.

What about the viability, T/C [24] of the same compound?
Its viability, T/C is 12.4%.

And the viability, T/C [25]?
Its viability, T/C is 43.9%.

And the viability, T/C [26]?
The viability, T/C was 41.9%.

What about the viability, T/C [27] of the same compound?
The viability, T/C was 27%.

What about the viability, T/C [28] of the same compound?
The viability, T/C was 18.4%.

What about the viability, T/C [29] of the same compound?
The viability, T/C was 10.9%.

What about the viability, T/C [30] of the same compound?
The viability, T/C was 7.26%.

What about the viability, T/C [31] of the same compound?
Its viability, T/C is 41.3%.

And the viability, T/C [32]?
The viability, T/C was 29.1%.

What about the viability, T/C [33] of the same compound?
Its viability, T/C is 27.2%.

What about the viability, T/C [34] of the same compound?
The viability, T/C was 15.3%.

What about the viability, T/C [35] of the same compound?
Its viability, T/C is 2.76%.

What about the viability, T/C [36] of the same compound?
Its viability, T/C is 2.89%.
